The values that follow are results of earlier work, collected in patent US9504677B2, “Substituted N-aryl pyridinones” (Auspex Pharmaceuticals, Inc., priority 2007, dated 2016).

The structures appear in SMILES notation.

The conditions of data set [1]: humans.

For `Cc1ccc(=O)n(-c2ccccc2)c1` [Pirfenidone, 5-methyl-1-phenyl-1H-pyridin-2-one], the “efficacy in rodent disease models” value in the data set on rodent disease models is recorded as “effective”. Besides, the DNA synthesis entry in the data set on leiomyoma cells and in the data set with myometrial cells was “inhibits DNA synthesis” each time. Moreover, the half-life result in data set [1] is given as “very short”.
